Read-outs that look alike come from different tables or passages of the source.

Data set [1] can be described thus: Plasma exposure of allopregnanolone from human SE study. To be noted: by Day 2; continuous IV infusion 86 μg/kg/h; single SRSE patient. Type of data set: in vivo. As for the experimental part: FIG. 2. Plasma exposure of allopregnanolone from human SE study. Plasma concentration profile over time of allopregnanolone in a single patient. The patient was dosed allopregnanolone (ALLO) at 1.5 mg/mL in 6% hydroxypropyl-β-cyclodextrin in 0.9% sodium chloride intravenously for 5 days (120 h). The infusion rate was 86 μg/kg/h. The patient was dosed 5.6 mg/h of allopregnanolone at 3.8 mL/h. Plasma concentration was analyzed 2 hours prior to the start of infusion and then 52, 76, 100, 124, and 148 hours post-infusion.
(§1) At the time that allopregnanolone was started, the patient was still in a pentobarbital-induced coma as well as receiving lacosamide, phenobarbital, clonazepam, and levetiracetam. The patient was started on allopregnanolone at a continuous infusion rate of 86 μg/kg/h for 5 days, after which the allopregnanolone was rapidly tapered and discontinued over a 24-hour period. Plasma samples were drawn at 5 h, 29 h, 53 h, 77 h, 101 h, 125 h, 149 h, and 173 h and are shown on FIG. 2. The plasma level rose and by Day 2 had achieved the target level of 150 nmoles/L. The pentobarbital was tapered and discontinued over the first 36 hours of allopregnanolone therapy. […] They continued to improve and was conversant, making jokes, and in a rehabilitation facility as of April 2013.

The subject of the next data set is patient in SRSE. Description: Treatment of one patient in super-refractory status epilepticus (SRSE) with allopregnanolone infusion. Type of data set: in vivo, human.
Text: A physician at the Massachusetts General Hospital, Boston, Mass. treated one patient in SRSE with allopregnanolone in a hydroxyl-propyl beta cyclodextrin formulation. The patient was a previously-healthy, person, college graduate who was started on allopregnanolone on their 92nd day of SRSE.
During their hospital course, the patient had previously been treated with propofol, midazolam, lacosamide, phenytoin, phenobarbital, ketamine, clonazepam, levetiracetam, valproate, pentobarbital, topiramate, steroids, pyridoxine, coq-10, lidocaine, electroconvulsive therapy (ECT), bromides, hypothermia, a ketogenic diet, and acupuncture.
as §1

For data set [2], the system named is patients with status epilepticus. To be noted: cited from earlier work.

The compound `CC(=O)[C@H]1CC[C@H]2[C@@H]3CC[C@H]4C[C@H](O)CC[C@]4(C)[C@H]3CC[C@]12C` [allopregnanolone, 3 alpha-hydroxy-5 alpha-pregnan-20-one] had a plasma level in data set [1] of 150 nM. In the data set with patient in SRSE (86 μg/kg/h for 5 days, then taper over 24 hours), the “adverse events attributed to allopregnanolone” value is recorded as “no adverse events”. Besides, the EEG entry in the data set with patient in SRSE (36-hour time point, patient entirely weaned from pentobarbital, infusion 86 μg/kg/h) was “had begun to normalize”. Also, the “clinical state of the patient” value with patient in SRSE (at 72 hours, infusion 86 μg/kg/h) was “awake and followed simple midline commands”.

As to `O=C1Nc2ccc(Cl)cc2C(c2ccccc2Cl)=NC1O` (stereo not drawn) [lorazepam], the “patients who did not respond to first line treatment” value in data set [2] (intravenous (IV) treatment) was 36.6%.

As to `Cc1ncc2n1-c1ccc(Cl)cc1C(c1ccccc1F)=NC2` [midazolam], in data set [2] (intramuscular (IM) treatment), the “patients who did not respond to first line treatment” value is listed as 26.6%.
